Assay results taken from patent US9850308B2, “Neutralization of CD95 activity blocks invasion of glioblastoma cells in vivo” (Deutsches Krebsforschungszentrum Stiftung des oeffentlichen …, priority 2006, dated 2017).
Entries after “also recorded” stand apart in the source; their conditions may differ. Residues, ends and D or L forms follow the SMILES beside them. *: point of attachment. Cbz = O=C(OCc1ccccc1)*; CH2F = FC*

What was measured:
[1] = test system: Jurkat A3 permanent human T-cell line; experiment: Jurkat apoptosis assay (Caspase 3/7 activity); assay type: cell-based; settings: Jurkat cells, 250 ng/ml CD95L-T4, 30 min preincubation
GSK3β = experiment: Phosphorylation (inhibition) of GSK3β, Western Blot; assay type: cell-based, human; settings: T98G cells, pre-treatment before CD95 stimulation
Experimental: The MAPK inhibitor, PD98059 (25 μM), the PI3K inhibitor […] (25 μM) and the pancaspase inhibitor zVAD-fmk (40 μM) were purchased from Calbiochem. The ILK inhibitor (20 μM) was kindly provided from S. Dedhar. Cells were preincubated with inhibitors 30 minutes (LY 290059 and zVAD-fmk) prior to treatment with either CD95L-T4 or αApo-1. Generation of Leucinezipper-CD95L (LZCD95L) was performed as previously described^41. The blocking agents (zVAD-fmk, PD98059, LY 290059 and KP-SD1) were given 30 minutes before treatment with LZ-CD95L or αApo-1. Cells were lysed for further biochemical analysis. Protein extraction and immunoblotting was performed as previously described^41.

T98G cells = experiment: Migration assay (collagen-coated transwell / two dimensional migration assay); assay type: cell-based, human; settings: T98G cells stimulated with α-Apo-1 (2 μg/ml) or LZ-CD95L (5 ng/ml)
Experimental: Migration of the glioma cells in vitro was measured by the migration through Collagen 1-coated (Chemicon) transwell inserts (Falcon). 5×10^4 cells were plated in 200 μl medium onto collagen-coated (50 μg/ml) transwell inserts with 8 μm pore size. Cells were either γ-irradiated before plating or treated after plating with α-Apo1 (2 μg/ml or 0.1 μg/ml+ProteinA for cross linking), LZ-CD95L (5 ng/ml), Nok1 (50 ng)/LZ-CD95L (5 ng/ml), Nok1 (50 ng) LZ-Supernatant (SN, 5 ng/ml), CD95L (10 ng/ml) and CD95L-T34. Preferably 24 h after plating the cells were starved with basal DMEM for additional 24 h before they were treated. The number of completely migrated cells was counted at 12 h, 24 h and 36 h after treatment. In every experiment triplicates were counted for each treatment.
2.5×10^5 cells were plated onto 6 cm culture dishes 12 h prior to irradiation. […]
Knockdown experiments were performed by transient transfection with Lipofectamine 2000™ (Invitrogen Life Technologies) following the instruction manual. […] After transient transfection with the different siRNAs cells were cultured for 72 h before treated with CD95LT4 (10 ng/ml and 20 ng/ml), migration was analyzed 24 h after treatment with a two dimensional migration assay. The knockdown was controlled by quantitative real-time PCR and FACS. […] Migration was measured 24 h after treatment in a two dimensional migration assay.

## APG101: fusion protein of the extracellular domain of the human CD95-receptor with human Fc, SEQ ID NO:1
[1]
  antagonism of CD95L-T4-induced apoptosis: antagonizes the apoptosis inducing effect of CD95L; also recorded: antagonized by APG101 in a dose dependent manner
[1]; listed as AP-G101
  antagonism of CD95L-T4-induced apoptosis: antagonizes the apoptosis inducing activity of CD95L-T4

## COC(=O)C[C@H](NC(=O)[C@H](C)NC(=O)[C@@H](NC(=O)OCc1ccccc1)C(C)C)C(=O)CF [zVAD-fmk] (Cbz-Val-Ala-Asp(OMe)-CH2F)
GSK3β
  blockade of CD95-induced GSK3β phosphorylation/inhibition: did not prevent GSK3β phosphorylation; also recorded: did not interfere with α-Apo-1 (2 μg/ml)-induced inhibition of GSK3β
GSK3β; listed as zVAD.fmk
  blockade of CD95-induced GSK3β phosphorylation/inhibition: did not block ser9 phosphorylation of GSK3β

## COc1cccc(-c2cc(=O)c3ccccc3o2)c1N [PD98059]
T98G cells
  blockade of CD95-induced migration: did not interfere with CD95-induced migration
T98G cells; listed as PD 98059
  blockade of CD95-induced migration: did not interfere with the CD95-induced migration
